The text below walks through data of patent US11123413B2, “Carbapenemases for use with antibiotics for the protection of the intestinal microbiome” (priority 2015, dated 2021).

“And” between values parts separate entries of the source, which are not always exact repeats. Identical values can stand only once.

For one series, the system named is gut microbiome. Further details: species or system Yorkshire piglets. As to conditions: in vivo. On the procedure: The animals were treated with ertapenem (30 mg/kg) via intravenous infusion one a day for a total of 7 days.
Two pre-treatment fecal samples were obtained, the first 4 days after the animals arrived at the animal treatment facility (Day −7), and the second 7 days after arrival (Day −4). An additional 3 fecal samples were collected at Day 4, Day 8, and Day 9. The fecal samples were collected using the OMNIgene GUT sample collection kits (OMR-200, DNA Genotek, Ontario, Canada) and stored at room temperature away from light until all samples were collected. DNA isolated from the fecal samples was subjected to deep sequencing of the intestinal microbiome and analyses.
DNA was isolated from the fecal samples and subjected to whole genome shotgun sequencing using an Illumine HiSeq system with a target of 20 million 100 bp single reads per sample. […]
The percent similarity based on the relative bacterial strain abundance was calculated. […] Animals began ertapenem treatment on Day 1 and the percent similarity decreased every day the animals were evaluated. […]
A statistical analysis was performed to determine the probability that the microbiomes before and after antibiotic treatment remained the same or were different. The microbiome sequence data were analyzed using a parameterization of the Dirichlet-Multinomial distribution (La Rosa et al., 2012) to perform a Likelihood Ratio Test. […]

A short description of series [1]: Oral P2A and intravenous meropenem in jejunal-fistulated dogs. It is filed as in vivo, laboratory beagles. As to conditions: peak level in dog jejunum; meropenem 30 mg/kg IV alone; individual dogs. On the procedure: The ability of P2A to degrade meropenem in the dog intestinal tract was evaluated using laboratory beagles that had permanent jejunal fistulas. The fistulas allowed the repeated collection of jejunal chyme specimens from these animals. Dogs were treated with peroral P2A (1 mg/kg) in a liquid formulation (PBS buffer), and/or intravenous meropenem (30 mg/kg). Serum samples were collected and serum meropenem levels quantified. Jejunal chyme samples were collected and meropenem and P2A levels were quantified. Meropenem levels in serum and chyme were measured using a plate diffusion method using meropenem susceptible Micrococcus luteus TS504 as the test strain. P2A activity levels in chyme were determined spectrophotometrically using meropenem as a substrate. Meropenem hydrolysis was monitored at a wavelength of 297 nm.

Take `C[C@@H](O)[C@H]1C(=O)N2C(C(=O)O)=C(S[C@@H]3CN[C@H](C(=O)Nc4cccc(C(=O)O)c4)C3)[C@H](C)[C@H]12` [ertapenem]: the “microbiome diversity (percent similarity of strain relative abundance)” value in the series with gut microbiome was “causes a loss of diversity in the microbiome”.
Take `C[C@@H](O)[C@H]1C(=O)N2C(C(=O)O)=C(S[C@@H]3CN[C@H](C(=O)N(C)C)C3)[C@H](C)[C@H]12` [Meropenem]: the “Meropenem” value in series [1] is 3.0 ug/ml (2×) and 3.2 ug/ml.
